Data as given in PubChem BioAssay (NCI).
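Where inhibition never reached the appropriate level, the endpoint shown equals the highest concentration tested. Otherwise, values were interpolated linearly from a five-concentration, 48-hour dose response in 96-well plates. Abbreviation: GI50, concentration required for 50% inhibition of growth. The concentration for full growth arrest is given as TGI.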

What was measured:
Experiment in all cases: NCI anticancer screen, dose series, 48 h
HS 578T breast = test system: HS 578T breast
NCI-H522 lung = test system: NCI-H522 lung
NCI-H226 lung = test system: NCI-H226 lung
SK-MEL-28 melanoma = test system: SK-MEL-28 melanoma
NCI/ADR-RES ovarian = test system: NCI/ADR-RES ovarian
M14 melanoma = test system: M14 melanoma
HL-60(TB) leukemia = test system: HL-60(TB) leukemia
NCI-H23 lung = test system: NCI-H23 lung
SF-268 CNS = test system: SF-268 CNS
SK-OV-3 ovarian = test system: SK-OV-3 ovarian
BT-549 breast = test system: BT-549 breast
SK-MEL-2 melanoma = test system: SK-MEL-2 melanoma
A549 NSCLC = test system: A549 NSCLC
OVCAR-8 ovarian = test system: OVCAR-8 ovarian
OVCAR-4 ovarian = test system: OVCAR-4 ovarian
OVCAR-3 ovarian = test system: OVCAR-3 ovarian
SNB-75 CNS = test system: SNB-75 CNS
LOX IMVI melanoma = test system: LOX IMVI melanoma
K-562 leukemia = test system: K-562 leukemia
MOLT-4 leukemia = test system: MOLT-4 leukemia
A498 renal = test system: A498 renal
RPMI-8226 leukemia = test system: RPMI-8226 leukemia
COLO 205 colon = test system: COLO 205 colon
TK-10 renal = test system: TK-10 renal
SR leukemia = test system: SR leukemia
MCF7 breast = test system: MCF7 breast
MDA-MB-231 breast = test system: MDA-MB-231 breast
CAKI-1 renal = test system: CAKI-1 renal

`O=c1ncc(I)cn1C1CC(O)C(CO)O1` (stereo not given) showed a GI50 (HS 578T breast) greater than 3250 µM, a TGI (HS 578T breast) greater than 3250 µM and a GI50 (NCI-H522 lung) of 668 µM. It also gave a TGI (NCI-H522 lung) of 1250 µM, a GI50 (NCI-H226 lung) greater than 3250 µM and a TGI (NCI-H226 lung) greater than 3250 µM. The GI50 (SK-MEL-28 melanoma) was 3150 µM, the TGI (SK-MEL-28 melanoma) was greater than 3250 µM and the GI50 (NCI/ADR-RES ovarian) was 1750 µM. It also gave a TGI (NCI/ADR-RES ovarian) greater than 3250 µM, a GI50 (M14 melanoma) of 1110 µM and a TGI (M14 melanoma) greater than 3250 µM. For the same compound, the GI50 (HL-60(TB) leukemia) was 613 µM, the TGI (HL-60(TB) leukemia) was greater than 3250 µM and the GI50 (NCI-H23 lung) was 1620 µM. The TGI (NCI-H23 lung) was greater than 3250 µM, the GI50 (SF-268 CNS) was 2110 µM and the TGI (SF-268 CNS) was greater than 3250 µM. It also gave a GI50 (SK-OV-3 ovarian) of 2100 µM, a TGI (SK-OV-3 ovarian) greater than 3250 µM and a GI50 (BT-549 breast) of 1510 µM. For the same compound, the TGI (BT-549 breast) was greater than 3250 µM, the GI50 (SK-MEL-2 melanoma) was greater than 3250 µM and the TGI (SK-MEL-2 melanoma) was greater than 3250 µM. For the same compound, the GI50 (A549 NSCLC) was 2460 µM, the TGI (A549 NSCLC) was greater than 3250 µM and the GI50 (OVCAR-8 ovarian) was 2610 µM. It also gave a TGI (OVCAR-8 ovarian) greater than 3250 µM, a GI50 (OVCAR-4 ovarian) of 1510 µM and a TGI (OVCAR-4 ovarian) greater than 3250 µM. The GI50 (OVCAR-3 ovarian) was 1070 µM, the TGI (OVCAR-3 ovarian) was greater than 3250 µM and the GI50 (SNB-75 CNS) was greater than 3250 µM. For the same compound, the TGI (SNB-75 CNS) was greater than 3250 µM, the GI50 (LOX IMVI melanoma) was 982 µM and the TGI (LOX IMVI melanoma) was greater than 3250 µM. For the same compound, the GI50 (K-562 leukemia) was 1220 µM, the TGI (K-562 leukemia) was greater than 3250 µM and the GI50 (MOLT-4 leukemia) was 1170 µM. For the same compound, the TGI (MOLT-4 leukemia) was greater than 3250 µM, the TGI (A498 renal) was greater than 3250 µM and the GI50 (RPMI-8226 leukemia) was greater than 3250 µM. The TGI (RPMI-8226 leukemia) was greater than 3250 µM, the GI50 (COLO 205 colon) was 1210 µM and the TGI (COLO 205 colon) was greater than 3250 µM. For the same compound, the GI50 (TK-10 renal) was greater than 3250 µM, the TGI (TK-10 renal) was greater than 3250 µM and the GI50 (SR leukemia) was 1170 µM. For the same compound, the TGI (SR leukemia) was greater than 3250 µM, the GI50 (MCF7 breast) was 1430 µM and the TGI (MCF7 breast) was greater than 3250 µM. It also gave a GI50 (MDA-MB-231 breast) greater than 3250 µM, a TGI (MDA-MB-231 breast) greater than 3250 µM and a GI50 (CAKI-1 renal) of 1470 µM. It also gave a TGI (CAKI-1 renal) greater than 3250 µM.
